In patent publication US20110081405A1, “Zeolite Formulation And Use Thereof For The Prevention And Therapy Of Diseases Caused By Infections With Herpes Simplex Virus Type 1 And Type 2” (priority 2008, published 2011):

Key:
[1] = background statement; cited from earlier work
[2] = tested on: HSV-2 (strain G); assay: Viral plaque inhibition assay, zeolite coincubated with HSV-2, supernatants added to cells; type: cell-based; settings: keratinocytes, supernatants of HSV-2 coincubated 18 hours with 5 μg/ml zeolite or 50 μg/ml Acyclovir, Mordenite 0.1-0.5 μm, P, X, A 0.5-5 μm
Procedure: (§1) Testing of Antiviral Activities of Synthetic Zeolites by the Viral Plaque Inhibition Assay—the Antiviral Activity of Zeolites when Coincubated with HSV In Vitro
(§2) Epidermal cell cultures of fibroblasts and keratinocytes were grown in vitro from healthy skin samples, remnants from operations. Fibroblast cultures were grown in Dulbecco modified Eagle's medium (DMEM) containing Glutamax I (L-alanin-L-glutamine) and sodium pyruvate, […] and pyridoxine, supplemented with 10% fetal calf serum (FCS), 0.25 μg gentamycin and 100 UI/L penicillin. Keratinocytes are grown in a mixture of DMEM, Hams F12 in the 3:1 ratio with the addition of Glutamax I, complemented with 9% of FCS, epidermal growth factor (EGF), insulin, hydrocortisone, triiodothyronine, adenine, and antibiotics. The antiviral effect was determined on primary cells (primary fibroblasts and keratinocytes) grown in vitro from the explants of healthy skin, and also on cell lines: fibroblasts cell line MRC-5, HEp-2 cell line, and Vero cell line.
(§3) MRC-5, Vero, HEp-2, and keratinocyte cell lines were all obtained from the American Type Culture Collection-ATCC, and grown in T-75 flasks at 37° C. in a humidified incubator with 5% CO2.
(§4) HSV-1 (strain F) and HSV-2 (strain G), both obtained from the ATCC, were propagated in HEp-2 cells and their titres checked in same cells (H. Kirchner, C. Kleinicke, H. Northoff. J. Gen. Virol. 1977, 37, 647.). 0.1, 0.5, 1, 2, 4, or 5 Multiplicity of infection (MOI) of HSV-1 or HSV-2 was used to infect Vero cells, keratinocyte cell lines and MRC-5 cell lines, as described below.
(§5) Synthetic zeolites: A, Mordenite, P and X were tested in vitro for an anti HSV activity. Mordenite was used in two characteristic size of particles (0.1-0.5 μm and 0.5-5 μm) and other zeolites in 0.5-5 μm particle size. Zeolites were used in the concentrations of 5, 50, 500 ng/ml; 1, 5, 50, 100, 500 μg/ml; 1, 2, 10, 50 mg/ml in growth medium.
(§6) The ability of HSV preincubated with zeolite to infect cells permissive to infection (permissive cells) and cell lines was tested in in vitro experiments.
(§7) Viral stock containing the HSV-1 or HSV-2 (in MOI described above), diluted in a minimal volume of growth medium containing 5% FCS was used for the coincubation with zeolite for 3-20 hours at 4° C. The pH was maintained at all times to be at around 7.00. The sterile cuvettes containing zeolite+HSV were then centrifuged at 4.000 rpm/30 minutes to remove any particulate content in supernatants. Those supernatants (in 200 μl volume) were then added to the MRC-5, HEp-2, or Vero cell lines (grown in 24 well plate to 85% confluency) for 1 hour at 37° C. Parallel cultures contained cells infected with 200 μl of HSV-1 or HSV-2 under the same conditions as for the addition of supernatants (above). After one hour incubation, the growth medium containing 9% FCS was added, and cells cultivated for another 3 days (to examine for any CPE by light microscopy). Growth medium was then aspirated from the wells, and 100 μl of 0.2% crystal violet dye, diluted in phosphate buffered saline (PBS), was added to each well. After half-hour exposure to the dye, the wells were washed twice with double distilled water, air-dried, and the HSV plaques in cell cultures were counted using Olympus light microscope (magnification of 40×). The CPE produced by the infection of permissive cells was characterised by morphological changes in host cells e.g. cell rounding, swelling, detachment from the surface, formation of syncicia, plaques, caused by the increased number of newly formed viral particles. Plaques formed by HSV destroying cells were easily distinguished from unaffected cell layers.

[3] = tested on: HSV-1 (strain F); assay: Viral plaque inhibition assay, zeolite coincubated with HSV-1, supernatants added to cells; type: cell-based; settings: keratinocytes, supernatants of HSV-1 coincubated 18 hours with 5 μg/ml zeolite or 50 μg/ml Acyclovir, Mordenite 0.1-0.5 μm, P, X, A 0.5-5 μm
Procedure: as §1, §2, §3, §4, §5, §6, §7

| SMILES | biavalibility of the drug [1] [%] | decrease in percentage of number of HSV-2 plaques ([2]; 0.1 MOI) [%] | decrease in percentage of number of HSV-2 plaques ([2]; 0.5 MOI) [%] | decrease in percentage of number of HSV-2 plaques ([2]; 1 MOI) [%] | decrease in percentage of number of HSV-2 plaques ([2]; 2 MOI) [%] | decrease in percentage of number of HSV-2 plaques ([2]; 4 MOI) [%] | decrease in percentage of number of HSV-2 plaques ([2]; 5 MOI) [%] | decrease in number of HSV-1 plaques ([3]; 0.1 MOI) | decrease in number of HSV-1 plaques ([3]; 0.5 MOI) | decrease in number of HSV-1 plaques ([3]; 1 MOI) | decrease in number of HSV-1 plaques ([3]; 2 MOI) | decrease in number of HSV-1 plaques ([3]; 4 MOI) | decrease in number of HSV-1 plaques ([3]; 5 MOI) |
| --- | --- | --- | --- | --- | --- | --- | --- | --- | --- | --- | --- | --- | --- |
| CC(=O)OCC(CCn1cnc2cnc(N)nc21)COC(C)=O [famcyclovir] | 77 |  |  |  |  |  |  |  |  |  |  |  |  |
| CC(C)[C@H](N)C(=O)OCCOCn1cnc2c(=O)[nH]c(N)nc21 [valacyclovir] | 55 |  |  |  |  |  |  |  |  |  |  |  |  |
| Nc1nc2c(ncn2COCCO)c(=O)[nH]1 [Acyclovir, 9-[(2-hydroxyetoxy)methyl]guanine] |  | 73 | 72 | 70 | 65 | 48 | 42 | 71 | 71 | 61 | 58 | 43 | 36 |
